Measurements: the Kinase Knowledgebase extract (Sharma et al. 2016)

Biological target: CDK2 (UniProt P24941)
Test: Enzyme Assay
Conditions: concentration not given here

`Cc1ccc(S(=O)(=O)CC(=O)Nc2sc3c(c2C(N)=O)CCN(C)C3)cc1` was tested, and the inhibition was 100%.
Work on `COc1cc(/C=C\C(=O)Nc2scc(C)c2C(N)=O)cc(OC)c1` yielded an inhibition of 100%.
For `CC(C)c1cc(C(N)=O)c(NC(=O)/C=C/c2c[nH]cn2)s1`, the inhibition was 100%.
With `CC(C)c1cc(C(N)=O)c(NC(=O)CCc2ccccc2)s1` the inhibition was 100%.
`NC(=O)c1cc(Cc2ccccc2)sc1NC(=O)c1n[nH]c2ccccc12` showed an inhibition of 100%.
`NC(=O)c1cc(-c2ccccc2)sc1NC(=O)CCc1cccs1` gave an inhibition of 100%.
For `CC(c1ccccc1)c1cc(C(N)=O)c(NC(=O)c2ccnc3ccccc23)s1` (centres undefined), the inhibition was 100%.
`Cc1sc(NC(=O)c2cc3cc(O)ccc3[nH]2)c(C(N)=O)c1C` was tested, and the inhibition was 100%.
Work on `CC(c1ccccc1)c1cc(C(N)=O)c(NC(=O)c2cc3ccccc3s2)s1` (centres undefined) yielded an inhibition of 100%.
Molecule `Cc1oncc1C(=O)Nc1sc2c(c1C(N)=O)CCCC2` has an inhibition of 100%.
Work on `COc1cc(C(=O)Nc2sc(Cc3ccccc3)cc2C(N)=O)ccc1O` yielded an inhibition of 100%.
For `CC(C)c1cc(C(N)=O)c(NC(=O)c2cccc(F)c2)s1`, the inhibition was 100%.
Work on `Cc1csc(NC(=O)CCCc2cccs2)c1C(N)=O` yielded an inhibition of 100%.
`CCC(N)C(=O)N(C(N)=O)c1sc(C(C)C)cc1C(N)=O` (centres undefined) gave an inhibition of 100%.
Work on `CC(c1ccccc1)c1cc(C(N)=O)c(NC(=O)c2cc3ccccc3n2C)s1` (centres undefined) yielded an inhibition of 100%.
Work on `NC(=O)c1cc(-c2ccccc2)sc1NC(=O)Cc1cccc(O)c1` yielded an inhibition of 100%.
For `CC(=O)NC(=O)C(C)Nc1sc(C(C)C)cc1C(N)=O` (centres undefined), the inhibition was 100%.
With `Cc1sc(NC(=O)CCC(=O)c2cccs2)c(C(N)=O)c1C` the inhibition was 100%.
Molecule `CC(c1ccccc1)c1cc(C(N)=O)c(NC(=O)c2ccc3ncccc3c2)s1` (centres undefined) has an inhibition of 100%.
For `NC(=O)c1cc(-c2ccccc2)sc1NC(=O)c1cccc(Cl)c1`, the inhibition was 100%.
With `Cc1ccc(C)c(C(=O)Nc2sc(C(C)C)cc2C(N)=O)c1` the inhibition was 100%.
Molecule `COc1cc(C(=O)Nc2scc(C)c2C(N)=O)cc(OC)c1C` has an inhibition of 100%.
For `CC(=O)NC(Cc1c[nH]cn1)C(=O)Nc1sc2c(c1C(N)=O)CCN(C)C2` (centres undefined), the inhibition was 100%.
`Cc1csc(NC(=O)c2cccc(S(C)(=O)=O)c2)c1C(N)=O` was tested, and the inhibition was 100%.
In the case of `N#CC1(C(=O)Nc2sc3c(c2C(N)=O)CCCC3)CC1`, the inhibition is reported as 100%.
Molecule `NC(=O)c1c(NC(=O)C2CCCC2)sc2c1CCCC2` has an inhibition of 100%.
In the case of `CC(=O)NC(=O)C1CCCN1c1sc(-c2ccccc2)cc1C(N)=O` (centres undefined), the inhibition is reported as 100%.
In the case of `CC(C)c1cc(C(N)=O)c(NC(=O)C(C)c2ccccc2)s1` (centres undefined), the inhibition is reported as 100%.
With `CC(c1ccccc1)c1cc(C(N)=O)c(NC(=O)c2cccc3cccnc23)s1` (centres undefined) the inhibition was 100%.
In the case of `NC(=O)c1cc(Cc2ccccc2)sc1NC(=O)/C=C\c1cccc(O)c1`, the inhibition is reported as 100%.
In the case of `CN1CCc2c(sc(NC(=O)c3cccc(I)c3)c2C(N)=O)C1`, the inhibition is reported as 100%.
`COc1cccc(O)c1C(=O)Nc1sc(Cc2ccccc2)cc1C(N)=O` was tested, and the inhibition was 100%.
`NC(=O)c1cc(-c2ccccc2)sc1NC(=O)c1ccc(Cl)cc1` showed an inhibition of 100%.
Work on `NC(=O)c1cc(-c2ccccc2)sc1NC(=O)Cc1ccccc1O` yielded an inhibition of 100%.
`NC(=O)c1cc(-c2ccccc2)sc1NC(=O)Cc1cccc(F)c1` showed an inhibition of 100%.
Molecule `NC(=O)c1c(NC(=O)c2ccccc2)sc2c1CCCC2` has an inhibition of 100%.
Work on `NC(=O)c1c(NC(=O)c2ccsc2)sc2c1CCCC2` yielded an inhibition of 100%.
`NC(=O)c1c(NC(=O)c2cccs2)sc2c1CCCC2` gave an inhibition of 100%.
`CC(c1ccccc1)c1cc(C(N)=O)c(NC(=O)c2cnc3ccccc3n2)s1` (centres undefined) gave an inhibition of 100%.
`COc1cccc2cc(C(=O)Nc3sc(C)c(C)c3C(N)=O)oc12` showed an inhibition of 100%.
Work on `CC(c1ccccc1)c1cc(C(N)=O)c(NC(=O)C2CCc3ccccc3C2)s1` (centres undefined) yielded an inhibition of 100%.
Work on `Cc1csc(NC(=O)CS(=O)(=O)c2ccccc2)c1C(N)=O` yielded an inhibition of 100%.
In the case of `Cc1nc2cc(C(=O)Nc3sc(C)c(C)c3C(N)=O)ccc2[nH]1`, the inhibition is reported as 100%.
Molecule `NC(=O)c1cc(-c2ccccc2)sc1NC(=O)c1cccnc1Cl` has an inhibition of 100%.
`CCC(=O)Nc1sc2c(c1C(N)=O)CCCC2` was tested, and the inhibition was 100%.
`CC(c1ccccc1)c1cc(C(N)=O)c(NC(=O)c2ccc(O)c(Cl)c2)s1` (centres undefined) was tested, and the inhibition was 100%.
`NC(=O)c1c(NC(=O)c2ccccn2)sc2c1CCCC2` was tested, and the inhibition was 100%.
Molecule `CC(C)c1cc(C(N)=O)c(NC(=O)CC2CCCC2)s1` has an inhibition of 100%.
Molecule `CN1CCc2c(sc(NC(=O)c3cc(O)c4ccc(Br)cc4n3)c2C(N)=O)C1` has an inhibition of 100%.
Molecule `COc1ccc(C(=O)Nc2scc(C)c2C(N)=O)c(OC)c1OC` has an inhibition of 100%.
In the case of `COc1ccc(C(=O)Nc2sc(Cc3ccccc3)cc2C(N)=O)c(O)c1`, the inhibition is reported as 100%.
`Cc1ccc(C(=O)Nc2sc(-c3ccccc3)cc2C(N)=O)cc1O` showed an inhibition of 100%.
Molecule `NC(=O)c1cc(Cc2ccccc2)sc1NC(=O)CCN1C(=O)C=CC1=O` has an inhibition of 100%.
`CN1CCc2c(sc(NC(=O)Cc3ccc(I)cc3)c2C(N)=O)C1` was tested, and the inhibition was 100%.
Work on `NC(=O)c1cc(-c2ccccc2)sc1NC(=O)/C=C/c1ccsc1` yielded an inhibition of 100%.
For `CN1CCc2c(sc(NC(=O)c3ccc(I)cc3)c2C(N)=O)C1`, the inhibition was 100%.
`COc1cccc(OC)c1C(=O)Nc1sc(C)c(C)c1C(N)=O` gave an inhibition of 100%.
Molecule `C=CCN(C(C)=O)C(=O)CNc1sc(-c2ccccc2)cc1C(N)=O` has an inhibition of 100%.
`CNC(=O)CN(C(=O)c1ccccc1)c1scc(C)c1C(N)=O` gave an inhibition of 100%.
Molecule `NC(=O)c1cc(Cc2ccccc2)sc1NC(=O)c1ccc2c(c1)C=NC2` has an inhibition of 100%.
In the case of `COc1ccc2[nH]c(C)c(CC(=O)Nc3sc4c(c3C(N)=O)CCN(C)C4)c2c1`, the inhibition is reported as 100%.
`NC(=O)c1c(NC(=O)C2(C(N)=O)CC2)sc2c1CCCC2` showed an inhibition of 100%.
`Cc1csc(NC(=O)c2cnn(-c3ccccc3)c2C)c1C(N)=O` showed an inhibition of 100%.
`NC(=O)c1c(NC(=O)CCCl)sc2c1CCCC2` was tested, and the inhibition was 100%.
`Cc1csc(NC(=O)CCn2ccc3ccccc32)c1C(N)=O` was tested, and the inhibition was 100%.
In the case of `NC(=O)c1c(NC(=O)c2c[nH]nc2N)sc2c1CCCC2`, the inhibition is reported as 100%.
`Cc1sc(NC(=O)Cc2ccc3c(c2)OCO3)c(C(N)=O)c1C` showed an inhibition of 100%.
`CC(C)c1cc(C(N)=O)c(NC(=O)c2cccc(C#N)c2)s1` showed an inhibition of 100%.
In the case of `CN(C)CC(=O)Nc1sc2c(c1C(N)=O)CCCC2`, the inhibition is reported as 100%.
`NC(=O)c1cc(-c2ccccc2)sc1NC(=O)CC1CCCCCC1` showed an inhibition of 100%.
Molecule `Cc1cccc(NC(=O)c2ccccc2C(=O)Nc2sc3c(c2C(N)=O)CCN(C)C3)c1` has an inhibition of 100%.
Work on `CC(=O)NC(=O)C(CC(C)C)Nc1sc(C(C)c2ccccc2)cc1C(N)=O` (centres undefined) yielded an inhibition of 100%.
With `CC(C)c1cc(C(N)=O)c(NC(=O)CCC(=O)N(C)C)s1` the inhibition was 100%.
`CC(C)c1cc(C(N)=O)c(NC(=O)C2CCCN2C)s1` (centres undefined) showed an inhibition of 100%.
In the case of `Cc1csc(NC(=O)c2ccc(S(N)(=O)=O)cc2)c1C(N)=O`, the inhibition is reported as 100%.
In the case of `CN1CCc2c(sc(NC(=O)c3sc4ccccc4c3Cl)c2C(N)=O)C1`, the inhibition is reported as 100%.
`CN1CCc2c(sc(NC(=O)C(Cc3ccccc3)NC(=O)c3ccccc3)c2C(N)=O)C1` (centres undefined) showed an inhibition of 100%.
`Cc1sc(NC(=O)c2cc(Cl)cc(Cl)c2)c(C(N)=O)c1C` showed an inhibition of 100%.
With `CC(c1ccccc1)c1cc(C(N)=O)c(NC(=O)Cc2cn(C)cn2)s1` (centres undefined) the inhibition was 100%.
Molecule `NC(=O)c1c(NC(=O)c2c[nH]cn2)sc2c1CCCC2` has an inhibition of 100%.
For `NC(=O)c1c(NC(=O)Cc2ccccc2)sc2c1CCCC2`, the inhibition was 100%.
`CC(C)c1cc(C(N)=O)c(NC(=O)Cc2ccsc2)s1` showed an inhibition of 100%.
`CC(C)c1cc(C(N)=O)c(NC(=O)c2ccc(C#N)cc2)s1` showed an inhibition of 100%.
In the case of `Cc1sc(NC(=O)c2ccc(-n3cccc3)cc2)c(C(N)=O)c1C`, the inhibition is reported as 100%.
With `Cc1sc(NC(=O)c2ccccc2C(F)(F)F)c(C(N)=O)c1C` the inhibition was 100%.
`Cc1sc(NC(=O)c2cccc(C(F)(F)F)c2)c(C(N)=O)c1C` gave an inhibition of 100%.
Work on `Cc1csc(NC(=O)c2ccccc2S(C)(=O)=O)c1C(N)=O` yielded an inhibition of 100%.
In the case of `NC(=O)c1cc(-c2ccccc2)sc1NC(=O)CCN1CCCCC1`, the inhibition is reported as 100%.
Work on `CC(c1ccccc1)c1cc(C(N)=O)c(NC(=O)c2cnnc3ccccc23)s1` (centres undefined) yielded an inhibition of 100%.
`Cc1ccc(C(=O)Nc2sc(C(C)C)cc2C(N)=O)cc1C` gave an inhibition of 100%.
Work on `NC(=O)c1c(NC(=O)c2ccncc2)sc2c1CCCC2` yielded an inhibition of 100%.
With `CC(=O)Nc1ccccc1C(=O)Nc1sc(C(C)c2ccccc2)cc1C(N)=O` (centres undefined) the inhibition was 100%.
Molecule `CC(=O)c1ccc(C(=O)Nc2sc(Cc3ccccc3)cc2C(N)=O)cc1` has an inhibition of 100%.
`NC(=O)c1cc(Cc2ccccc2)sc1NC(=O)COc1ccc(O)cc1` showed an inhibition of 100%.
`CCCC(Nc1sc(Cc2ccccc2)cc1C(N)=O)C(=O)NC(N)=O` (centres undefined) showed an inhibition of 100%.
For `COc1ccc(C(=O)Nc2sc(Cc3ccccc3)cc2C(N)=O)cc1O`, the inhibition was 100%.
With `Cc1sc(NC(=O)c2c(Cl)cccc2Cl)c(C(N)=O)c1C` the inhibition was 100%.
With `NC(=O)c1ccccc1C(=O)Nc1sc(Cc2ccccc2)cc1C(N)=O` the inhibition was 100%.
`Cc1c(O)cccc1C(=O)Nc1sc(-c2ccccc2)cc1C(N)=O` gave an inhibition of 100%.
`CCCCC(C)(C)C(=O)Nc1sc(C(C)C)cc1C(N)=O` was tested, and the inhibition was 100%.
`CC(C)c1cc(C(N)=O)c(NC(=O)C2CCCCCC2)s1` showed an inhibition of 100%.
`CC(C)c1cc(C(N)=O)c(NC(=O)CCNC(N)=O)s1` gave an inhibition of 100%.
`NC(=O)c1cc(Cc2ccccc2)sc1NC(=O)c1cccc2[nH]ccc12` gave an inhibition of 100%.
`NC(=O)c1cc(Cc2ccccc2)sc1NC(=O)c1c[nH]cn1` showed an inhibition of 100%.
In the case of `NC(=O)c1cc(-c2ccccc2)sc1NC(=O)C(O)c1ccccc1` (centres undefined), the inhibition is reported as 100%.
Molecule `Cc1ccccc1C(=O)Nc1sc2c(c1C(N)=O)CCCC2` has an inhibition of 100%.
Work on `CC(c1ccccc1)c1cc(C(N)=O)c(NC(=O)c2ccc3ccccc3c2)s1` (centres undefined) yielded an inhibition of 100%.
`COc1ccc2c(c1)C(CC(=O)Nc1sc3c(c1C(N)=O)CCN(C)C3)C(=O)C2` (centres undefined) was tested, and the inhibition was 100%.
For `CC(c1ccccc1)c1cc(C(N)=O)c(NC(=O)c2cccc3c2C(=O)N=N3)s1` (centres undefined), the inhibition was 100%.
With `CN(C)c1ccc(C(=O)Nc2sc(Cc3ccccc3)cc2C(N)=O)cc1` the inhibition was 100%.
Work on `CC(=O)N1CCC(C(=O)Nc2sc(C(C)c3ccccc3)cc2C(N)=O)CC1` (centres undefined) yielded an inhibition of 100%.
`NC(=O)c1c(NC(=O)c2cccnc2)sc2c1CCCC2` gave an inhibition of 100%.
`CN1CCc2c(sc(NC(=O)Cc3ccccc3I)c2C(N)=O)C1` gave an inhibition of 100%.
`COc1ccc(OC)c(C(=O)Nc2sc(C)c(C)c2C(N)=O)c1` was tested, and the inhibition was 100%.
